Test results as given in patent US9127044B2, “Cyclic depsipeptides” (NOVARTIS AG, priority 2007, dated 2015).
Like-named read-outs stand apart in the source and are kept apart here. Where a SMILES comes first, the peptide text is derived from it. Bridges are numbered along the chain shown (N, C = ends). [ ]: non-standard residue; d: D form. The star is where a group is joined. Isovaleryl = CC(C)CC(=O)*

What was measured:
human chymotrypsin = experiment: Inhibition of human chymotrypsin; format: biochemical
[1] = molecular target: T1, Human neutrophil elastase (Homo sapiens, UniProt P08246); experiment: HNE inhibitory activity in vitro (fluorescence-quenched substrate); format: biochemical
T1 construct: purchased Elastin Products Company, Inc. (EPC, Owensville, USA) SE563
T1 sequence (P08246 30-267): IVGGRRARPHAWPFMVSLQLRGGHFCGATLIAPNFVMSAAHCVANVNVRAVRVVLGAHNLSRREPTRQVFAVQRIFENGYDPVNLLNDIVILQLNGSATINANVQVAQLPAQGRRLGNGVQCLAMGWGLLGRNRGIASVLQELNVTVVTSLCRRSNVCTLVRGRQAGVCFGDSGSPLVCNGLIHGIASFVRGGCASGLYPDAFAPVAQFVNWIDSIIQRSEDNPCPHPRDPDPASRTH
Protocol: Human neutrophil elastase (cat. no. SE563) is purchased from Elastin Products Company, Inc. (EPC, Owensville, USA). The dry powder (purity >95% stated by the supplier) was dissolved in 20 mM sodium acetate buffer, pH 5.0, 50% (v/v) glycerol, and frozen at −80° C. in aliquots.
The fluorescence-quenched substrate (DABCYL-Ser-Glu-Val^Asn-Leu-Asp-Ala-Glu-Phe-EDANS, where ^ indicates the scissile bond, identified by MS analysis) was purchased from Bachem AG (Bubendorf, Switzerland), and kept as a 5 mM stock solution in DMSO at −20° C. All other chemicals were of analytical grade.
Enzymatic reactions were conducted in 100 mM Tris/HCl buffer at pH 7.5, containing 500 mM NaCl, and 0.05% (w/v) CHAPS.
All protein and peptide containing solutions are handled in siliconized tubes (Life Systems Design, Merenschwand, Switzerland).
(§1) The compound solutions as well as the enzyme and the substrate solutions are transferred to the 384-well plates (black Cliniplate; cat. no. 95040020 Labsystems Oy, Finland) by means of a CyBi-Well 96-channel pipettor (CyBio AG, Jena, Germany).
(§2) For fluorescence intensity (FI) measurements an Ultra Evolution reader (TECAN, Maennedorf, Switzerland) is used. The instrument is equipped with a combination of a 350 nm (20 nm bandwidth) and a 500 nm (25 nm bandwidth) bandpass filter for fluorescence excitation and emission acquisition, respectively. To increase the signal:background ratio, an appropriate dichroic mirror is employed. The optical filters and the dichroic mirror are purchased from TECAN. The fluorophores in each well are excited by three flashes per measurement.

human kallikrein 7 = human kallikrein 7 (Homo sapiens, UniProt P49862); experiment: Kallikrein-7 inhibitory activity in vitro (fluorescence-quenched substrate); format: biochemical
Protocol: (§3) IC50 for human kallikrein can be measured using the fluorescence-quenched substrate Ac-Glu-Asp(EDANS)-Lys-Pro-Ale-Leu-Phe^Arg-Leu-Gly-Lys(DABCYL)-Glu-NH2 (where ^ indicates the scissile bond, identified by MS analysis) which can be purchased from Biosyntan (Berlin, Germany). Enzymatic reactions are conducted in 50 mM sodium citrate buffer at pH 5.6 containing 150 mM NaCl and 0.05% (w/v) CHAPS. For the determination of IC50 values the assay is performed at room temperature in 384-well plates. All final assay volumes are 30 μl. Test compounds are dissolved in 90% (v/v) DMSO/water and diluted in water (containing 0.05% (w/v) CHAPS) to 3-times the desired assay concentration. The 11 final compound concentrations are: 0.3 nM, 1 nM, 3 nM, 10 nM, 30 nM, 100 nM, 300 nM, 1 μM, 3 μM, 10 μM and 30 μM. For each assay, 10 μl water/CHAPS (±test compound) are added per well, followed by 10 μl protease solution (diluted with 1.5× assay buffer). The protease concentration in final assay solution is 0.2 nM (according to the enzyme concentrations determined by the Bradford method). After 1 hour of incubation at room temperature, the reaction is started by addition of 10 μl substrate solution (substrate dissolved in 1.5× assay buffer, final concentration is 2 μM). […] The IC50 value is calculated from the plot of percentage of inhibition vs. inhibitor concentration using non-linear regression analysis software (XLfit, Vers. 4.0; ID Business Solution Ltd., Guildford, Surrey, UK).
The fluorescence-quenched substrate Ac-Glu-Asp(EDANS)-Lys-Pro-Ale-Leu-Phe^Arg-Leu-Gly-Lys(DABCYL)-Glu-NH2 (where ^ indicates the scissile bond, identified by MS analysis) is purchased from Biosyntan (Berlin, Germany) and kept as a 5 mM stock solution in DMSO at −20° C. All other chemicals are of analytical grade.
Enzymatic reactions are conducted in 50 mM sodium citrate buffer at pH 5.6 containing 150 mM NaCl and 0.05% (w/v) CHAPS.
as §1, with “All protein and peptide containing solutions are handled in siliconized tubes (Life Systems Design, Merenschwand, Switzerland). The” for “The”
as §2
as §3, with “For” for “IC50 for human kallikrein can be measured using the fluorescence-quenched substrate Ac-Glu-Asp(EDANS)-Lys-Pro-Ale-Leu-Phe^Arg-Leu-Gly-Lys(DABCYL)-Glu-NH2 (where ^ indicates the scissile bond, identified by MS analysis) which can be purchased from Biosyntan (Berlin, Germany). Enzymatic reactions are conducted in 50 mM sodium citrate buffer at pH 5.6 containing 150 mM NaCl and 0.05% (w/v) CHAPS. For”, “volumes were” for “volumes are”, “concentration was” for “concentration is”

Crl:NMRI mice = experiment: Anti-inflammatory activity in murine model of allergic contact dermatitis (ACD), oxazolone; format: in vivo
Protocol: Method: Crl:NMRI mice were sensitized on the shaved abdomen with 50 μl of 2% oxazolone on day 1 and challenged with 10 μl oxazolone on the inner surface of the right ear on day 8. The unchallenged left ears served as normal controls and dermatitis was evaluated from the difference in auricular weight (taken as a measure of inflammatory swelling) on day 9. The animals were treated topically with 10 μl test compound or the solvent only 30 min after the challenge. The efficacy of the treatment was calculated as the percentage inhibition of inflammatory auricular swelling relative to animals treated with the vehicle alone.

[2] = Table 14, concentration of test compound 10 mM
[3] = Table 14, concentration of test compound 30 mM
[4] = Table 11, read-out: human neutrophile elastase IC 50
[5] = Table 11, read-out: hKallikrein7 IC 50

Sequence of human kallikrein 7 (P49862 30-253): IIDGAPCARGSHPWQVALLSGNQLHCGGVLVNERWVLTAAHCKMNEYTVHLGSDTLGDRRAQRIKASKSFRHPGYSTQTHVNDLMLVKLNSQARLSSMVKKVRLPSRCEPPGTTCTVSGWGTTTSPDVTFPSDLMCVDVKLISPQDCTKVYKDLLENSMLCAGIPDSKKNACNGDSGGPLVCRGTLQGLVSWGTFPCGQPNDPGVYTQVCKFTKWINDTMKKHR

SMILES | % Inhibition of inflammatory swelling (Crl:NMRI mice; [2]) | % Inhibition of inflammatory swelling (Crl:NMRI mice; [3]) | IC50 [1, 4] | IC50 (human kallikrein 7; [5]) | IC50 [1] | IC50 (human kallikrein 7; hKallikrein7 IC 50, Table 11) | also measured
CC(C)CC(=O)N[C@@H](CCC(N)=O)C(=O)N[C@@H]1C(=O)N[C@@H](CC(C)C)C(=O)NC2CC[C@H](O)N(C2=O)[C@@H](Cc2ccccc2)C(=O)N(C)[C@@H](Cc2ccc(O)cc2)C(=O)N[C@@H](C(C)C)C(=O)O[C@@H]1C (stereo partly shown) [formula VIII] |  |  |  |  |  |  | IC50 (human chymotrypsin): ~4 nM; IC50 ([1]; read-out: IC50 human neutrophile elastase): ~2.5 nM; IC50 (human kallikrein 7; read-out: IC50 for human kallikrein 7): < 3 nM
CCC(C)C1NC(=O)C(Cc2ccc(OCc3cc(C)n(C)n3)cc2)N(C)C(=O)C(C(C)CC)N2C(=O)C(CCC2O)NC(=O)C(CC(C)C)NC(=O)C(NC(=O)C(CCC(N)=O)NC(=O)C(C)C)C(C)OC1=O (stereo not shown) [example 43] | 42% | 55% | 1 nM | 0.2 nM |  |  | 
CCOC1CCC2NC(=O)C(CC(C)C)NC(=O)C(NC(=O)C(CCC(N)=O)NC(=O)C(C)C)C(C)OC(=O)C(C(C)CC)NC(=O)C(Cc3ccc(O)cc3)N(C)C(=O)C(C(C)CC)N1C2=O (stereo not shown) [example 10] | 22% | 25% |  |  | 9 nM | 3.5 nM | 
CCC(C)C1NC(=O)C(Cc2ccc(O)cc2)N(C)C(=O)C(C(C)CC)N2C(=O)C(CCC2OCc2ccccc2)NC(=O)C(CC(C)C)NC(=O)C(NC(=O)C(CCC(N)=O)NC(=O)C(C)C)C(C)OC1=O (stereo not shown) [example 9] | 42% | 38% |  |  | 3 nM | 2 nM | 
CCC(C)[C@@H]1NC(=O)[C@H](Cc2ccc(OCC(=O)NCCOCCOCC(=O)OC(C)(C)C)cc2)N(C)C(=O)[C@H](C(C)CC)N2CCCC(NC(=O)[C@H](CC(C)C)NC(=O)[C@@H](NC(=O)[C@H](CCC(N)=O)NC(=O)C(C)C)[C@@H](C)OC1=O)C2=O (stereo partly shown) [example 44] |  |  | 9 nM | 3.5 nM |  |  | 
CCC(C)[C@@H]1NC(=O)[C@H](Cc2ccc(OC(=O)OCC(C)C)cc2)N(C)C(=O)[C@H](C(C)CC)N2CCCC(NC(=O)[C@H](CC(C)C)NC(=O)[C@@H](NC(=O)[C@H](CCC(N)=O)NC(=O)C(C)C)[C@@H](C)OC1=O)C2=O (stereo partly shown) [example 27] |  |  |  |  | 20 nM | 3 nM | 
CCC(C)C1NC(=O)C(Cc2ccc(O)cc2)N(C)C(=O)C(C(C)CC)N2CCCC(NC(=O)C(CC(C)C)NC(=O)C(NC(=O)C(CCC#N)NC(=O)C(C)C)C(C)OC1=O)C2=O (stereo not shown) [example 22] |  |  | 40 nM | 6 nM |  |  | 
CCC(C)C1NC(=O)C(Cc2ccc(O)cc2)N(C)C(=O)C(C(C)CC)N2C(=O)C(CCC2OCCO)NC(=O)C(CC(C)C)NC(=O)C(NC(=O)C(CCC(N)=O)NC(=O)C(C)C)C(C)OC1=O (stereo not shown) [example 14] |  |  |  |  | 5 nM | 10 nM | 
CC(C)CC(=O)N[C@@H](CCC(N)=O)C(=O)N[C@@H]1C(=O)N[C@@H](CC(C)C)C(=O)N2CCC[C@@H]2C(=O)N[C@@H](Cc2ccccc2)C(=O)N[C@@H](Cc2ccc(O)cc2)C(=O)N[C@@H](C(C)C)C(=O)O[C@@H]1C [formula X] (Isovaleryl-QTL[dP]FYV; ester 2-C) |  |  | 200 nM | 20 nM |  |  | 
